Results from US3980794A, “Method for promoting growth of poultry with 3-(5-nitro-2-imidazolyl)pyrazoles” (Eli Lilly and Company, priority 1975, dated 1976).
In brackets after ≈: the same amount, converted by molar mass. Like-named read-outs stand apart in the source and are kept apart here.

Key:
Assay type in all cases: cell-based
[1] = system: Bacteroides fragilis sp. fragilis 1936B; assay: Susceptibility of anaerobic bacteria, agar dilution; conditions: 24 h; Bacteroides fragilis sp. fragilis 1936B; read-out: 24 Hr. Minimum Inhibitory Concentration
Actinomyces bovis 13684 = assay: as above; conditions: read-out: 24 Hr. Minimum Inhibitory Concentration
[2] = system: Fusobacterium necrophorum 13859; assay: as above; conditions: read-out: 24 Hr. Minimum Inhibitory Concentration
[3] = system: Bacteroides fragilis sp. fragilis 1877; assay: as above; conditions: 24 h, read-out: 24 Hr. Minimum Inhibitory Concentration
[4] = system: Bacteroides fragilis sp. vulgatus 1211; assay: as above; conditions: 24 h, read-out: 24 Hr. Minimum Inhibitory Concentration
[5] = system: Peptostreptococcus intermedius 1264; assay: as above; conditions: 24 h; Peptostreptococcus intermedius 1264; read-out: 24 Hr. Minimum Inhibitory Concentration
[6] = system: Clostridium innocuum 1373; assay: as above; conditions: read-out: 24 Hr. Minimum Inhibitory Concentration
[7] = system: Veillonella alcalescens 1; assay: as above; conditions: read-out: 24 Hr. Minimum Inhibitory Concentration
[8] = system: Fusobacterium symbiosum 1470; assay: as above; conditions: read-out: 24 Hr. Minimum Inhibitory Concentration
[9] = system: Eubacterium aerofaciens 1235; assay: as above; conditions: read-out: 24 Hr. Minimum Inhibitory Concentration
Clostridium ramosum 1313 = assay: as above; conditions: read-out: 24 Hr. Minimum Inhibitory Concentration
[10] = system: Clostridium perfringens 81; assay: microbe, parasite or virus in culture; conditions: Clostridium perfringens, 81, 24 h, read-out: 24 Hr. Minimum Inhibitory Concentration
[11] = system: Propionibacterium acnes 79; assay: Susceptibility of anaerobic bacteria, agar dilution; conditions: read-out: 24 Hr. Minimum Inhibitory Concentration
[12] = system: Clostridium septicum 1128; assay: as above; conditions: 24 h, read-out: 24 Hr. Minimum Inhibitory Concentration
Experimental: (§1) The susceptibility of anaerobic bacteria, both gram positive and gram negative, to a representative number of the novel compounds of this application was determined using the agar dilution method. The bacteria used were isolated from patients hospitalized at the Indiana University Medical Center. The isolates were identified in the anaerobe laboratory of the Medical Center by the criteria established by Dowell et al., Laboratory Methods in Anaerobic Bacteriology. Public Health Serv. Publ. No. 1803 (1968) [Center for Disease Control, Atlanta, Ga.]; and by Smith et al., The Pathogenic Anaerobic Bacteria, pages 96-136 (1968) [Charles C. Thomas, Publisher, Springfield, Ill.]. All the organisms were maintained in chopped meat glucose medium (Scott Labs) at room temperature.
(§2) The method used for the agar dilution tests was based on the studies of Sutter et al., Antimicrob. Ag. Chemother. 3, 188-193 (1973). The strains of anaerobic bacteria were grown in 16 × 120 mm. tubes for 16 to 18 hours in Thioglycolate medium without indicator--135C (Becton, Dickinson and Co.), to which was added 5 mcg. of hemin per milliliter prior to autoclaving, plus 1 mg. of sodium bicarbonate and 0.1 mcg. of filter-sterilized menadione per milliliter after autoclaving. The growth tubes for the bacteria Veillonella alcalescens were additionally supplemented with 5 mg. of sodium lactate per milliliter. The strains were adjusted to the turbidity of the No. 1 McFarland standard in Thioglycolate medium without indicator--135C containing an additional 0.13 percent Bacto-agar (Difco). Each strain was then applied to the surface of the petri plate (100 mm. × 15 mm.) by means of a replicator.
(§3) For the agar dilution studies, two-fold dilutions of the test compounds were prepared in deionized water to which was then added laked sheep blood and filter-sterilized menadione so the concentrations after the agar dilution were 5 percent and 10 mcg./ml. respectively. An equal volume of double strength Brucella agar (Becton, Dickinson and Co.) was mixed with each dilution in a water bath held at 50°C. and then poured onto the petri plates.
(§4) All of the procedures were done inside a plastic glove box, except for the incubation of the growth tubes and the pouring of the plates. After the plates hardened, they were put inside the glove box for a minimum of two hours before they were inoculated. Generally, the glove box procedures of Aranki et al., Applied Microbiology 17, 568-576 (1969), were followed, but the following modifications were used. Dry materials were introduced into the glove box by evacuating the lock to 28 inches of mercury and filling once with nitrogen gas, followed by evacuating in the same manner and filling with an 80 percent nitrogen plus 10 percent CO2 plus 10 percent hydrogen gas mixture. Liquid media and agar plates were introduced into the glove box by evacuating the lock to 10 inches of mercury and filling with gas four times. The nitrogen gas was used to fill the lock for the first two cycles of evacuation, with the gas mixture described above used for the final two fillings.
(§5) All the plates were incubated at 37°C. in Gas Pak jars (Becton, Dickinson and Co.) containing palladium-coated alumina catalysts (reactivated after each use). The results of the agar dilution tests were read after about 24 hours of incubation. The minimum inhibitory concentration (MIC) was recorded as the lowest concentration of test compound at which there was no growth.
(§6) The results of these in vitro tests are recorded in Charts 11 and 12 which follow. The test compounds are identified in the same manner as in the previous experiments. The antibiotics cephalothin and erythromycin were also run simultaneously with the novel compounds of this application, for comparison purposes, and the results are included in Charts 11 and 12 below.

[13] = system: Clostridium septicum bovine; assay: as above; conditions: 24 h, read-out: 24 Hr. Minimum Inhibitory Concentration
Experimental: as §1, §2, §3, §4, §5, §6

[14] = system: Peptococcus anaerobius 1428; assay: as above; conditions: 24 h; Peptococcus anaerobius 1428; read-out: 24 Hr. Minimum Inhibitory Concentration
[15] = system: Propionibacterium acnes 44; assay: as above; conditions: Cutibacterium acnes, 24 h; Propionibacterium acnes 44; read-out: 24 Hr. Minimum Inhibitory Concentration
[16] = system: Bacteroides fragilis sp. thetaiotaomicron 1438; assay: as above; conditions: 24 h, read-out: 24 Hr. Minimum Inhibitory Concentration
[17] = system: Bacteroides fragilis sp. vulgatus 1563; assay: as above; conditions: 24 h, read-out: 24 Hr. Minimum Inhibitory Concentration
[18] = 24 h, Fusobacterium necrophorum 13859
[19] = Bacteroides fragilis sp. fragilis 1877
[20] = Bacteroides fragilis sp. vulgatus 1211
[21] = 24 h, Clostridium innocuum 1373
[22] = Veillonella parvula, 24 h, Veillonella alcalescens 1
[23] = 24 h, Fusobacterium symbiosum 1470
[24] = Collinsella aerofaciens, 24 h, Eubacterium aerofaciens 1235
[25] = Thomasclavelia ramosa, 24 h, Clostridium ramosum 1313
[26] = Cutibacterium acnes, 24 h, Propionibacterium acnes 79
[27] = Bacteroides fragilis sp. thetaiotaomicron 1438
[28] = Bacteroides fragilis sp. vulgatus 1563
[29] = Fusobacterium necrophorum, 13859, 24 h
[30] = [Clostridium] innocuum, 1373, 24 h
[31] = Collinsella aerofaciens, 1235, 24 h

SMILES | MIC [1] | MIC (Actinomyces bovis 13684; 24 h, Actinomyces bovis 13684) | MIC [2, 18] | MIC [3, 19] | MIC [4, 20] | MIC [5] | MIC [6, 21] | MIC [7, 22] | MIC [8, 23] | MIC [9, 24] | MIC (Clostridium ramosum 1313; [25]) | MIC [10] | MIC [11, 26] | MIC [12] | MIC [13] | MIC [14] | MIC [15] | MIC [16, 27] | MIC [17, 28] | MIC [2, 29] | also measured
CCNc1cc(-c2ncc([N+](=O)[O-])n2C)nn1C [Compound 11A, 5-(ethylamino)-1-methyl-3-(1-methyl-5-nitro-2-imidazolyl)pyrazole] | 2 µg/mL (≈ 7.99 µM) | 2 µg/mL (≈ 7.99 µM) | < 0.03 µg/mL | 0.06 µg/mL (≈ 0.24 µM) | < 0.03 µg/mL | 8 µg/mL (≈ 32 µM) | 0.125 µg/mL (≈ 0.499 µM) | 1 µg/mL (≈ 4 µM) | < 0.03 µg/mL | < 0.03 µg/mL | 0.5 µg/mL (≈ 2 µM) | 0.03 µg/mL (≈ 0.12 µM) | < 0.03 µg/mL | 0.06 µg/mL (≈ 0.24 µM) | 0.06 µg/mL (≈ 0.24 µM) | 1 µg/mL (≈ 4 µM) | 8 µg/mL (≈ 32 µM) | 0.06 µg/mL (≈ 0.24 µM) | < 0.03 µg/mL | – | –
Cn1c([N+](=O)[O-])cnc1-c1nn(CCCl)c(N)c1C#N [Compound 15, 5-Amino-1-(2-chloroethyl)-3-(1-methyl-5-nitro-2-imidazolyl)pyrazole-4-carbonitrile] | 0.5 µg/mL (≈ 1.69 µM) | 1 µg/mL (≈ 3.38 µM) | – | – | – | 8 µg/mL (≈ 27.1 µM) | – | – | – | – | 0.5 µg/mL (≈ 1.69 µM) | < 0.125 µg/mL | – | 0.25 µg/mL (≈ 0.845 µM) | < 0.125 µg/mL | 1 µg/mL (≈ 3.38 µM) | > 32 µg/mL | – | – | < 0.125 µg/mL | MIC ([3]; Bacteroides fragilis): < 0.125 µg/mL; MIC ([4]; Bacteroides fragilis): < 0.125 µg/mL; MIC [6, 30]: < 0.125 µg/mL; MIC ([7]; Veillonella parvula, 1, 24 h): < 0.125 µg/mL; MIC ([8]; Fusobacterium, 1470, 24 h): < 0.125 µg/mL; MIC [9, 31]: < 0.125 µg/mL; MIC ([11]; Cutibacterium acnes, 79, 24 h): < 0.125 µg/mL; MIC ([16]; Bacteroides fragilis): < 0.125 µg/mL; MIC ([17]; Bacteroides fragilis): < 0.125 µg/mL
CCn1nc(-c2ncc([N+](=O)[O-])n2C)c(C#N)c1N [Compound 16, 5-Amino-1-ethyl-3-(1-methyl-5-nitro-2-imidazolyl)pyrazole-4-carbonitrile] | 0.25 µg/mL (≈ 0.957 µM) | – | – | – | – | 2 µg/mL (≈ 7.66 µM) | – | – | – | – | – | < 0.125 µg/mL | – | < 0.125 µg/mL | < 0.125 µg/mL | 1 µg/mL (≈ 3.83 µM) | > 32 µg/mL | – | – | < 0.125 µg/mL | MIC (Actinomyces bovis 13684; Actinomyces bovis, 13684, 24 h): < 0.125 µg/mL; MIC ([3]; Bacteroides fragilis): < 0.125 µg/mL; MIC ([4]; Bacteroides fragilis): < 0.125 µg/mL; MIC [6, 30]: < 0.125 µg/mL; MIC ([7]; Veillonella parvula, 1, 24 h): < 0.125 µg/mL; MIC ([8]; Fusobacterium, 1470, 24 h): < 0.125 µg/mL; MIC [9, 31]: < 0.125 µg/mL; MIC (Clostridium ramosum 1313; Thomasclavelia ramosa, 1313, 24 h): < 0.125 µg/mL; MIC ([11]; Cutibacterium acnes, 79, 24 h): < 0.125 µg/mL; MIC ([16]; Bacteroides fragilis): < 0.125 µg/mL; MIC ([17]; Bacteroides fragilis): < 0.125 µg/mL
CN(C)S(=O)(=O)Nc1c(C#N)c(-c2ncc([N+](=O)[O-])n2C)nn1C [Compound 20] | 2 µg/mL (≈ 5.64 µM) | 2 µg/mL (≈ 5.64 µM) | 1 µg/mL (≈ 2.82 µM) | 4 µg/mL (≈ 11.3 µM) | 2 µg/mL (≈ 5.64 µM) | 32 µg/mL (≈ 90.3 µM) | 16 µg/mL (≈ 45.2 µM) | 1 µg/mL (≈ 2.82 µM) | 4 µg/mL (≈ 11.3 µM) | 8 µg/mL (≈ 22.6 µM) | 4 µg/mL (≈ 11.3 µM) | 8 µg/mL (≈ 22.6 µM) | 1 µg/mL (≈ 2.82 µM) | 8 µg/mL (≈ 22.6 µM) | 8 µg/mL (≈ 22.6 µM) | 1 µg/mL (≈ 2.82 µM) | > 32 µg/mL | 4 µg/mL (≈ 11.3 µM) | 1 µg/mL (≈ 2.82 µM) | – | –
